Where two headings read alike, the source gives them in different places.
Assays:
[1] = Dynamic vapor sorption (DVS); type: physicochemical; conditions: for DVS isotherm type / hygroscopicity: 0 to 90 to 0% RH; for DVS weight gain at 70% RH: 70% RH (printed 70° RH in Example 8); for DVS desorption behaviour (hysteresis): during desorption
In short: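 At 25 °C, 20 to 50 mg sample was dried at 0% RH for 60 minutes, then humidity raised 0-30% in 5% steps and 30-90% in 10% steps, with matching desorption back to 0%. Equilibrium set at dm/dt 0.002%/min; amorphous material was run with fixed 1 hour steps.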

[2] = Solubility determinations in SIF buffers (FaSSIF, FeSSIF, FaSSGF); type: physicochemical; conditions: for Solubility in SIF buffers: FaSSIF, FeSSIF and FaSSGF, 37° C., 24 h, concentration tested 30 mg/ml
In short: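 Salt forms suspended at 30 mg/ml in FaSSIF, FeSSIF or FaSSGF at 37° C. for 24 h, pH kept in range with 1 M HCl or NaOH. Supernatants sampled at 1, 3, 6 and 24 h, centrifuged and quantified by HPLC as compound 1 free base against amorphous compound 1 calibrants; pellets checked by XRPD for form change.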

[3] = type: physicochemical; conditions: for Change of purity profile / CP: 10-day time point
Procedure: Equilibrium Humidity Evaluation (40° C./75% RH for 10 Days)
100 mg portions of compound 1 salts (for inputs see table below) were placed in the relevant open vials. The powders were finely divided and distributed evenly over the base of the vial, such that equal material coverage across the panel was observed. These samples were then maintained 40°C. under 75% RH. The samples were sub-sampled at intervals of 5 and 10 days and analysed by ^1H NMR, HPLC, XRPD, DSC, TGA and PLM, for evidence of phase change or chemical degradation (FIG. 269-297).

[4] = Amorphous forms and thermal study (glass temperature Tg by DSC/TGA); type: physicochemical; conditions: for Glass temperatures (Tg): amorphous form
[5] = Amorphisation activity: Antisolvent/N2 flow, 50 mg
[6] = Amorphisation activity: Freeze dry, 50 mg
[7] = Amorphisation activity: HFIPA Evaporation o/n, 50 mg
[8] = Amorphisation activity: HFIPA Evaporation, 50 mg

COc1ccc2c(ccn2C[C@@H](C)N(C)C)c1.Cl [Compound 1 HCl]
DVS isotherm type / hygroscopicity [1]: slightly hygroscopic isotherm | DVS isotherm type / hygroscopicity ([1]; listed as Compound 1·HCl): slightly hygroscopic isotherm | DVS isotherm type / hygroscopicity ([1]; listed as compound 1·HCl): slightly hygroscopic | DVS weight gain at 70% RH [1]: ca. 0.2 % w/w | DVS mono and multilayer sorption >80% RH ([1]; >80% RH): ca. 0.5 % w.w | DVS desorption behaviour (hysteresis) [1]: small water affinity hysteresis | DVS desorption behaviour (hysteresis) ([1]; listed as Compound 1·HCl): small water affinity hysteresis | Disproportionation in SIF buffers [2]: disproportionation not observed | Solubility in SIF buffers ([2]; listed as HC): freely soluble | Solubility in SIF buffers ([2]; listed as compound 1·HCl): Freely soluble | Change of purity profile / CP ([3]; 40° C./75% RH): no reduction in CP | Change of purity profile / CP ([3]; 40° C./75% RH, listed as compound 1·HCl): little changed | CP ([3]; 40° C./75% RH, over 10 days): 99.60 % area | Stability at 40° C./75% RH ([3]; 10 days, listed as compound 1·HCl): Chemically and physically stable | Form by XRPD [4, 5]: Form A | Outcome [4, 5]: Crystalline | Form by XRPD [4, 6]: Form A | Outcome [4, 6]: Crystalline | Form by XRPD [4, 7]: Form A | Outcome [4, 7]: Crystalline | Form by XRPD [4, 8]: Form A | Outcome [4, 8]: Crystalline | Outcome ([4]; Hot plate heat-up, 20 to 236 ° C.): Form A | Outcome ([4]; Hot stage plate heat-up, 20 to 260 ° C.): Amorphous | Outcome ([4]; Hot stage plate heat-up, 20 to 275 ° C.): Amorphous | Outcome ([4]; Open Pan DSC, 20 to 220 to −20, O/N 20 to 250 ° C.): Amorphous | Outcome ([4]; Sealed DSC, 20 to 220 to −20 to 250 ° C.): Amorphous | Outcome ([4]; TGA, 20 to 220 to −20 to 250 ° C.): Amorphous | Glass temperatures (Tg) [4]: 37 °C

COc1ccc2c(ccn2C[C@@H](C)[NH+](C)C)c1.O=C(O)/C=C/C(=O)O [Compound 1 fumarate, (R)-1-(5-methoxy-1H-indol-1-yl)-N,N-dimethylpropan-2-amine fumarate]
RH above which pronounced mono, multilayer sorption and probable deliquescence occurred [1]: > 80 % RH | DVS isotherm type / hygroscopicity ([1]; listed as Compound 1·Fumarate, fumarate): deliquescent type isotherm | DVS isotherm type / hygroscopicity ([1]; listed as compound 1·Fumarate, fumarate): deliquescent | DVS weight gain at 70% RH [1]: ca. 1 % w/w | Solubility in SIF buffers [2]: freely soluble | Change of purity profile / CP ([3]; 40° C./75% RH): reduction in CP | HPLC peak RRT 0.93 ([3]; salt before storage (t = 0)): 0.36 | HPLC peak RRT 1.00 (reference peak) ([3]; salt before storage (t = 0)): 98.38 | HPLC peak RRT 1.11 ([3]; salt before storage (t = 0)): 0.79 | HPLC peak RRT 1.15 ([3]; salt before storage (t = 0)): 0.27 | HPLC peak RRT 1.17 ([3]; salt before storage (t = 0)): 0.13 | HPLC peak RRT 1.19 ([3]; salt before storage (t = 0)): 0.08 | HPLC peak RRT 0.93 ([3]; t = 5 d at 75% RH at 40° C.): 0.64 | HPLC peak RRT 0.98 ([3]; t = 5 d at 75% RH at 40° C.): 0.05 | HPLC peak RRT 1.00 (reference peak) ([3]; t = 5 d at 75% RH at 40° C.): 96.82 | HPLC peak RRT 1.08 ([3]; t = 5 d at 75% RH at 40° C.): 0.05 | HPLC peak RRT 1.11 ([3]; t = 5 d at 75% RH at 40° C.): 1.06 | HPLC peak RRT 1.15 ([3]; t = 5 d at 75% RH at 40° C.): 0.60 | HPLC peak RRT 1.17 ([3]; t = 5 d at 75% RH at 40° C.): 0.02 | HPLC peak RRT 1.18 ([3]; t = 5 d at 75% RH at 40° C.): 0.27 | HPLC peak RRT 1.20 ([3]; t = 5 d at 75% RH at 40° C.): 0.20 | HPLC peak RRT 1.27 ([3]; t = 5 d at 75% RH at 40° C.): 0.05 | HPLC peak RRT 1.28 ([3]; t = 5 d at 75% RH at 40° C.): 0.03 | HPLC peak RRT 1.39 ([3]; t = 5 d at 75% RH at 40° C.): 0.10 | HPLC peak RRT 1.43 ([3]; t = 5 d at 75% RH at 40° C.): 0.06 | HPLC peak RRT 1.47 ([3]; t = 5 d at 75% RH at 40° C.): 0.06 | HPLC peak RRT 0.93 ([3]; t = 10 d at 75% RH at 40° C.): 0.61 | HPLC peak RRT 0.98 ([3]; t = 10 d at 75% RH at 40° C.): 0.07 | HPLC peak RRT 1.00 (reference peak) ([3]; t = 10 d at 75% RH at 40° C.): 97.08 | HPLC peak RRT 1.08 ([3]; t = 10 d at 75% RH at 40° C.): 0.04 | HPLC peak RRT 1.11 ([3]; t = 10 d at 75% RH at 40° C.): 0.96 | HPLC peak RRT 1.13 ([3]; t = 10 d at 75% RH at 40° C.): 0.05 | HPLC peak RRT 1.15 ([3]; t = 10 d at 75% RH at 40° C.): 0.52 | HPLC peak RRT 1.18 ([3]; t = 10 d at 75% RH at 40° C.): 0.09 | HPLC peak RRT 1.19 ([3]; t = 10 d at 75% RH at 40° C.): 0.12 | HPLC peak RRT 1.20 ([3]; t = 10 d at 75% RH at 40° C.): 0.15 | HPLC peak RRT 1.27 ([3]; t = 10 d at 75% RH at 40° C.): 0.03 | HPLC peak RRT 1.28 ([3]; t = 10 d at 75% RH at 40° C.): 0.05 | HPLC peak RRT 1.34 ([3]; t = 10 d at 75% RH at 40° C.): 0.04 | HPLC peak RRT 1.39 ([3]; t = 10 d at 75% RH at 40° C.): 0.08 | HPLC peak RRT 1.43 ([3]; t = 10 d at 75% RH at 40° C.): 0.04 | HPLC peak RRT 1.45 ([3]; t = 10 d at 75% RH at 40° C.): 0.03 | HPLC peak RRT 1.47 ([3]; t = 10 d at 75% RH at 40° C.): 0.05 | Form by XRPD [4, 5]: Amorphous | Outcome [4, 5]: Gum | Form by XRPD [4, 6]: Form A | Outcome [4, 6]: Crystalline | Outcome ([4]; Amorphisation activity: Rotary Vac (Methanol), 50 mg): Gum | Outcome ([4]; Hot plate heat-up, 20 to 165 ° C.): Amorphous | Outcome ([4]; Hot stage plate heat-up, 20 to 165 ° C.): Amorphous | Outcome ([4]; Open Pan DSC, 20 to 145 to −20, O/N 20 to 230 ° C.): Amorphous | Outcome ([4]; Sealed DSC, 20 to 145 to −20 to 230 ° C.): Amorphous | Outcome ([4]; TGA, 20 to 145 to −20 to 230 ° C.): Amorphous | Glass temperatures (Tg) [4]: 24 °C

Source: patent publication US12319652B2, “Salts and solid forms of (R)-1-(5-methoxy-1H-indol-1-yl)-N,N-dimethylpropan-2-amine” (priority 2021, dated 2025)
